According to article PMC4581874 (PLoS ONE, 2015):

Key:
PhKγ2 (h) = target: T1, PhKγ2 (h) (Homo sapiens, UniProt P15735); assay: Kinase profile, PhKγ2; format: biochemical; conditions: mean ± S.D.
T1 construct: purchased Millipore (now Eurofins) KinaseProfiler / IC50 Profiler
Method: (§1) All kinase assays were carried out using KinaseProfiler^TM and IC50 Profiler^TM (Millipore UK Ltd., Dundee, UK. Now Eurofins Scientific, Dundee, UK). All IC50 data were presented as the mean values. The Curves obtained to determine IC50 values were shown in Supporting Information (S1 Fig).

PKCβII (h) = target: T2, PKCβII (h) (Homo sapiens, UniProt P05771); assay: Kinase profile, PKCβII; format: biochemical; conditions: mean ± S.D.
T2 construct: purchased Millipore (now Eurofins) KinaseProfiler / IC50 Profiler
Method: as §1

CDK5/p25 (h) = target: T3, CDK5/p25 (h) (Homo sapiens, UniProt Q00535); assay: Kinase profile, CDK5/p25; format: biochemical; conditions: mean ± S.D.
T3 construct: purchased Millipore (now Eurofins) KinaseProfiler / IC50 Profiler
Method: as §1

CDK3/cyclin E (h) = target: T4, CDK3/cyclin E (h) (Homo sapiens, UniProt Q00526); assay: Kinase profile, CDK3/cyclin E; format: biochemical; conditions: mean ± S.D.
T4 construct: purchased Millipore (now Eurofins) KinaseProfiler / IC50 Profiler
Method: as §1

PKCγ (h) = target: T5, PKCγ (h) (Homo sapiens, UniProt P05129); assay: Kinase profile, PKCγ; format: biochemical; conditions: mean ± S.D.
T5 construct: purchased Millipore (now Eurofins) KinaseProfiler / IC50 Profiler
Method: as §1

Lyn (h) = target: T6, Lyn (h) (Homo sapiens, UniProt P07948); assay: Kinase profile, Lyn; format: biochemical; conditions: mean ± S.D.
T6 construct: purchased Millipore (now Eurofins) KinaseProfiler / IC50 Profiler
Method: as §1

CDK1/cyclin B (h) = target: T7, CDK1/cyclin B (h) (Homo sapiens, UniProt P06493); assay: Kinase profile, CDK1/cyclin B; format: biochemical; conditions: mean ± S.D.
T7 construct: purchased Millipore (now Eurofins) KinaseProfiler / IC50 Profiler
Method: as §1

PDGFRβ = target: T8, PDGFRβ (Homo sapiens, UniProt P09619); assay: In vitro kinase assay, PDGFRβ; format: biochemical
T8 construct: purchased Millipore UK Ltd., Dundee, UK (now Eurofins Scientific); KinaseProfiler / IC50 Profiler service
Method: as §1

HUVECs [1] = assay: HUVEC viability assay (cytotoxicity); format: cell-based, human; conditions: 24 hours
Method: HCC827 cells were purchased from the American Type Culture Collection (ATCC, Manassas, VA, USA). Cells were grown in RPMI 1640 (Welgene Inc., Daegu, Republic of Korea) supplemented with 10% fetal bovine serum (FBS) (Welgene Inc.) and 1% penicillin-streptomycin (Gibco®, Life Technologies, Carlsbad, CA, USA) in a humidified 5% CO2 atmosphere at 37°C. Human umbilical vein endothelial cells (HUVECs, ScienCell Research Laboratories, Carlsbad, CA, USA) were cultured in endothelial growth medium-2 (EGM-2; Lonza, Walkersville, MD, USA) from passages 3 to 6.
For the HUVEC viability assay, HUVECs were treated with phosphate-buffered saline (PBS) or the indicated concentrations of VEGF inhibitors in EGM-2 medium for 24 hours. After the cells were washed with PBS, they were counted using an inverted light microscope (Nikon Eclipse Ti-U; Nikon Corp., Tokyo, Japan) in 5 random fields from each well.

EGFR = EGFR (Homo sapiens, UniProt P00533); assay: In vitro kinase assay, EGFR; format: biochemical
Method: All kinase assays were carried out using KinaseProfiler^TM and IC50 Profiler^TM (Millipore UK Ltd., Dundee, UK. Now Eurofins Scientific, Dundee, UK). All IC50 data were presented as the mean values.

PKCβI (h) = target: T9, PKCβI (h) (Homo sapiens, UniProt P05771); assay: Kinase profile, PKCβI; format: biochemical; conditions: mean ± S.D.
T9 construct: purchased Millipore (now Eurofins) KinaseProfiler / IC50 Profiler
Method: as §1

CaMKIV (h) = target: T10, CaMKIV (h) (Homo sapiens, UniProt Q16566); assay: Kinase profile, CaMKIV; format: biochemical; conditions: mean ± S.D.
T10 construct: purchased Millipore (now Eurofins) KinaseProfiler / IC50 Profiler
Method: as §1

SAPK2a (h) = target: T11, SAPK2a (h) (Homo sapiens, UniProt Q16539); assay: Kinase profile, SAPK2a; format: biochemical; conditions: mean ± S.D.
T11 construct: purchased Millipore (now Eurofins) KinaseProfiler / IC50 Profiler
Method: as §1

PDGFRα = target: T12, PDGFRα (Homo sapiens, UniProt P16234); assay: In vitro kinase assay, PDGFRα; format: biochemical
T12 construct: purchased Millipore UK Ltd., Dundee, UK (now Eurofins Scientific); KinaseProfiler / IC50 Profiler service
Method: as §1

PKG1α (h) = target: T13, PKG1α (h) (Homo sapiens, UniProt Q13976); assay: Kinase profile, PKG1α; format: biochemical; conditions: mean ± S.D.
T13 construct: purchased Millipore (now Eurofins) KinaseProfiler / IC50 Profiler
Method: as §1

PKCα (h) = target: T14, PKCα (h) (Homo sapiens, UniProt P17252); assay: Kinase profile, PKCα; format: biochemical; conditions: mean ± S.D.
T14 construct: purchased Millipore (now Eurofins) KinaseProfiler / IC50 Profiler
Method: as §1

CaMKIIδ (h) = target: T15, CaMKIIδ (h) (Homo sapiens, UniProt Q13557); assay: Kinase profile, CaMKIIδ; format: biochemical; conditions: mean ± S.D.
T15 construct: purchased Millipore (now Eurofins) KinaseProfiler / IC50 Profiler
Method: as §1

PKCε (h) = target: T16, PKCε (h) (Homo sapiens, UniProt Q02156); assay: Kinase profile, PKCε; format: biochemical; conditions: mean ± S.D.
T16 construct: purchased Millipore (now Eurofins) KinaseProfiler / IC50 Profiler
Method: as §1

PKCδ (h) = target: T17, PKCδ (h) (Homo sapiens, UniProt Q05655); assay: Kinase profile, PKCδ; format: biochemical; conditions: mean ± S.D.
T17 construct: purchased Millipore (now Eurofins) KinaseProfiler / IC50 Profiler
Method: as §1

MAPK1 (h) = target: T18, MAPK1 (h) (Homo sapiens, UniProt P27361); assay: Kinase profile, MAPK1; format: biochemical; conditions: mean ± S.D.
T18 construct: purchased Millipore (now Eurofins) KinaseProfiler / IC50 Profiler
Method: as §1

Abl (h) = target: T19, Abl (h) (Homo sapiens, UniProt P00519); assay: Kinase profile, Abl; format: biochemical; conditions: mean ± S.D.
T19 construct: purchased Millipore (now Eurofins) KinaseProfiler / IC50 Profiler
Method: as §1

HUVECs [2] = assay: VEGF-induced tube formation assay; format: cell-based, human; conditions: VEGF 50 ng/mL, compound 1 μg/mL
Method: For analyzing of the antagonistic response to VEGF, tube formation, scratch wound migration, and cell proliferation assays were performed after the exposure of HUVECs to 50 ng/mL VEGF-A (R&D Systems, Minneapolis, MN), which induced a significant angiogenic response. For the cell proliferation assays, cells were incubated overnight in endothelial basal media (EBM; Lonza, Walkersville, MD, USA) containing 0.5% FBS or supplemented with VEGF-A and/or VEGF inhibitors. The cells were washed with PBS and counted in 4 random microscope fields. The tube formation assay was performed by seeding cells on Matrigel-coated plates (BD Bioscience, Bedford, MA, USA) and incubating in EBM containing 0.5% FBS or supplemented with VEGF-A and/or VEGF inhibitors. After overnight incubation, tubule networks were quantified by measuring the tubule length in 4 random microscope fields. For the analysis of scratch wound migration, confluent cell monolayers grown on 6-well plates were scratched using a micropipette tip. […] Cell migration was observed by optical microscopy and quantified by measuring the number of cells that had migrated from the wound edges.
In (A) and (B), the number of cells was expressed as the fold change with respect to the number of cells seeded at day 0. […]

T8 sequence (P09619 33-1106): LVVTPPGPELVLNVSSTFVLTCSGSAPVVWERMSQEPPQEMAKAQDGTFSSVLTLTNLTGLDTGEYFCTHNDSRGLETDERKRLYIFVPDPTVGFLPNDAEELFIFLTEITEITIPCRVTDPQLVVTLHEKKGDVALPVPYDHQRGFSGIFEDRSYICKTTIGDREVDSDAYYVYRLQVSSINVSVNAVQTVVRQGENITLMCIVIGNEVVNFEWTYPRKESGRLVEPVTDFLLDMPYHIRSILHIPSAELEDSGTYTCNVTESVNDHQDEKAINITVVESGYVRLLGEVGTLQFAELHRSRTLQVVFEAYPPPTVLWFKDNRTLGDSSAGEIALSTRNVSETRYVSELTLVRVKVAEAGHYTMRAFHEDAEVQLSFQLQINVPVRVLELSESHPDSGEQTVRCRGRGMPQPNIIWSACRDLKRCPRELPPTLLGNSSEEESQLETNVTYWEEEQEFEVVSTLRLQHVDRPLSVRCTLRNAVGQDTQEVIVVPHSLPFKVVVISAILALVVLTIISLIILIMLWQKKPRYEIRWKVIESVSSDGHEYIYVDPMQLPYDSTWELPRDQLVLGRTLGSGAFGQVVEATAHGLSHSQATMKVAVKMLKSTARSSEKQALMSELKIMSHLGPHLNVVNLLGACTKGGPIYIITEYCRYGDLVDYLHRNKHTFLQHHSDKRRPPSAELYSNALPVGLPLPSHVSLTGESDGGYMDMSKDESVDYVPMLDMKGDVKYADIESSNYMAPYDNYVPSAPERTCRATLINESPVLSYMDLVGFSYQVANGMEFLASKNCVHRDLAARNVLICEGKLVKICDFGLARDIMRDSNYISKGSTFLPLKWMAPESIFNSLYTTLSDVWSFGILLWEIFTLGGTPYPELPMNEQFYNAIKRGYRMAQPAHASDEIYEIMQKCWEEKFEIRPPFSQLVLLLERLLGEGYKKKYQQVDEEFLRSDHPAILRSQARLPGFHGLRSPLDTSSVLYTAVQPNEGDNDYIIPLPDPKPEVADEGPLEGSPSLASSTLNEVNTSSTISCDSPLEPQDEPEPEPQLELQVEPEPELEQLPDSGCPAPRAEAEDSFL
EGFR, sequence (P00533 25-1210): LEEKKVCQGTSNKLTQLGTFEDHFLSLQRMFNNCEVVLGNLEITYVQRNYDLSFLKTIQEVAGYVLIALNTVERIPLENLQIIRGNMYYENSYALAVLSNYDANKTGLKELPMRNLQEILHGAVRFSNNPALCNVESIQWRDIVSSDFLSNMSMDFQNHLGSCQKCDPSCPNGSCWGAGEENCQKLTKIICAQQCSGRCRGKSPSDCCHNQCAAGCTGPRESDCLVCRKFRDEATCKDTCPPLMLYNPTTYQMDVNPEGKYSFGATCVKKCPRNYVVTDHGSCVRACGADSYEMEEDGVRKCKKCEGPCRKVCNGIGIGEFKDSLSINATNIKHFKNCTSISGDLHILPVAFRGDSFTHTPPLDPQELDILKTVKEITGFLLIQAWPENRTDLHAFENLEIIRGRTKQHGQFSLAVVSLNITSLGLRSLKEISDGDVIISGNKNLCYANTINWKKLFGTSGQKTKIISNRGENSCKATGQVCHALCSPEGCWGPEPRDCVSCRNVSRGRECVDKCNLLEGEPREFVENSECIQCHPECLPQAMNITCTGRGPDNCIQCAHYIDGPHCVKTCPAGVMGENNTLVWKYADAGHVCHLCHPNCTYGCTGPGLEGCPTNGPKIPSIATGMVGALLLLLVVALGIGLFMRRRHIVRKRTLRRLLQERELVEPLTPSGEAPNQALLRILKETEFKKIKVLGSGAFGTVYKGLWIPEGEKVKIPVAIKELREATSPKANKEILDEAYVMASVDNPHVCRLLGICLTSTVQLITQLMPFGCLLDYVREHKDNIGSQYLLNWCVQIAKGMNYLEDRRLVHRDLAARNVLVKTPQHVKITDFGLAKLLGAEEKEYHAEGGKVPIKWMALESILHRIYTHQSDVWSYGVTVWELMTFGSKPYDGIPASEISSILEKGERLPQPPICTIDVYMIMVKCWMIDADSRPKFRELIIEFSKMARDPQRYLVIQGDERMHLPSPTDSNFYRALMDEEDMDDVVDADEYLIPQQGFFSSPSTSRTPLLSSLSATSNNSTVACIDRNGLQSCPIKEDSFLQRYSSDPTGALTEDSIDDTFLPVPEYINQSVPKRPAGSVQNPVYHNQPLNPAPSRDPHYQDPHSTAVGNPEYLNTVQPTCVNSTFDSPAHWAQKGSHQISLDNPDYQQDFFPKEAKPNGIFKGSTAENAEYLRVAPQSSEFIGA
T12 sequence (P16234 24-1089): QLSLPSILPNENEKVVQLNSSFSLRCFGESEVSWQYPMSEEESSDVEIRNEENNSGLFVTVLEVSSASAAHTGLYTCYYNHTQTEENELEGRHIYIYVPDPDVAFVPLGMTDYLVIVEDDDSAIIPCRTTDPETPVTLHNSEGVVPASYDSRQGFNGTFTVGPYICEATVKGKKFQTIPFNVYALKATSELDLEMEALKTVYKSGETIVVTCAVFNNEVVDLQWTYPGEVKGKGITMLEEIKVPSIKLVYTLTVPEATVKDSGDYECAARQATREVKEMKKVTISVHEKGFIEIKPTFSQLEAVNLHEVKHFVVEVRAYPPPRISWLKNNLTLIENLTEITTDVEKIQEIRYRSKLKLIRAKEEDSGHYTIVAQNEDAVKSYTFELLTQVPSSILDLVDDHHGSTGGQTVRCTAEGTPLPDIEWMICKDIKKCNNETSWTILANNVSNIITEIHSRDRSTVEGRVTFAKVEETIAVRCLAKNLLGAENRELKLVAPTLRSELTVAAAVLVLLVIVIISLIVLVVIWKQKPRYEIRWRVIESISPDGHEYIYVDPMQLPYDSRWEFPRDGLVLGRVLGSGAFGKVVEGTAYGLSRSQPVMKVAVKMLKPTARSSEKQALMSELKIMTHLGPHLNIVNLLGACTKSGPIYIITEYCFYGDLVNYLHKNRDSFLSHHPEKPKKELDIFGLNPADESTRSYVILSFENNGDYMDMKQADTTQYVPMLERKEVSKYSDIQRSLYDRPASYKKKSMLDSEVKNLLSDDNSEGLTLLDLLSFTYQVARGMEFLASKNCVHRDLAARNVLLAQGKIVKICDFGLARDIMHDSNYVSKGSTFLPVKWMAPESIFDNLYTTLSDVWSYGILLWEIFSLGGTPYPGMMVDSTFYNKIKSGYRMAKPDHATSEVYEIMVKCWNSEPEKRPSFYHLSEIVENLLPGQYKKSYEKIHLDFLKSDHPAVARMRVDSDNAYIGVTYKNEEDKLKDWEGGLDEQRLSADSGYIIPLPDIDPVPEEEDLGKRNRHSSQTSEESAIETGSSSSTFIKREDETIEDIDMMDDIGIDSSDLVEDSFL
T11 sequence (Q16539 whole entry): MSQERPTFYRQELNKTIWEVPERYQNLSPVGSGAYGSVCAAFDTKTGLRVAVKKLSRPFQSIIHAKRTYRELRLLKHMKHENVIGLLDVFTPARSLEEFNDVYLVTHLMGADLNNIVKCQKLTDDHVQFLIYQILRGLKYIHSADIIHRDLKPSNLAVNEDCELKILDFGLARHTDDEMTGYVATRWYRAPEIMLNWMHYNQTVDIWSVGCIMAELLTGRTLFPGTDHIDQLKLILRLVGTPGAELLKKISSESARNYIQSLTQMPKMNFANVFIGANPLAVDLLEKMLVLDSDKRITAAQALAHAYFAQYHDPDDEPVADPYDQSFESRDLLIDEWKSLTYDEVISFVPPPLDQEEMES
T2 sequence (P05771 1-673 isoform P05771-2): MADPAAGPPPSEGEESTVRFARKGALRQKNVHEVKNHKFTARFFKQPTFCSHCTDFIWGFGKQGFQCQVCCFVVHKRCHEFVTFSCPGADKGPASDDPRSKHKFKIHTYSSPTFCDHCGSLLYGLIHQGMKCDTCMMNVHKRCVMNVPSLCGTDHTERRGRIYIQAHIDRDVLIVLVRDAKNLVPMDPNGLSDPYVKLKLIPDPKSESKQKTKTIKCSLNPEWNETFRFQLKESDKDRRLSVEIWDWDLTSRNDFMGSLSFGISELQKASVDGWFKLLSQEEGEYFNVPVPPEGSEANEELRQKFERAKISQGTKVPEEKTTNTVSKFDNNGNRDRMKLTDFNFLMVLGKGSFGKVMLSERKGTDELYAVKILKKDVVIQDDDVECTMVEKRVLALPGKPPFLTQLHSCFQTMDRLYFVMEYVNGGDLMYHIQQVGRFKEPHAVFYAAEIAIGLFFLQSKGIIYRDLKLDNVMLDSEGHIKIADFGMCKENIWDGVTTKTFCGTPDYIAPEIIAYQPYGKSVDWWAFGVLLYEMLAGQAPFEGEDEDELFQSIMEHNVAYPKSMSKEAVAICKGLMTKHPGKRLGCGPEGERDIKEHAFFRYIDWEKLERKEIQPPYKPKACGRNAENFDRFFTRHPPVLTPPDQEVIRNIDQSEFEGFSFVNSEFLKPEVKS
T3 sequence (Q00535 whole entry): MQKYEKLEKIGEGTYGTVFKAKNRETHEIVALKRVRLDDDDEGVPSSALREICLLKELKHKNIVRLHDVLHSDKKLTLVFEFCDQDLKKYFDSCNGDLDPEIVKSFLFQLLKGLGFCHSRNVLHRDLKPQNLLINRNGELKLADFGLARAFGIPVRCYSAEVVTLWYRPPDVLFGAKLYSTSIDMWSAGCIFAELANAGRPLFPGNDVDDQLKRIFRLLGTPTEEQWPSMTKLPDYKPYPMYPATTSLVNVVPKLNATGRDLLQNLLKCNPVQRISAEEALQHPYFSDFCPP
T3 sequence (Q15078 99-307 partner limits assumed): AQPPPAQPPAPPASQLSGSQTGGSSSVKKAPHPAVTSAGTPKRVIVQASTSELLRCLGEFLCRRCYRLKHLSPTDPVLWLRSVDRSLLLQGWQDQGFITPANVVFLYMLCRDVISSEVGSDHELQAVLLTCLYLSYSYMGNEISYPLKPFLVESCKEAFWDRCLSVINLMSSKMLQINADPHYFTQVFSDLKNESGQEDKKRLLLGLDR

Cc1ccc(Nc2nccc(N(C)c3ccc4[nH]ccc4c3)n2)cc1S(N)(=O)=O [MKP101]
inhibition at 1 µM (PhKγ2 (h)): 0% | inhibition at 1 µM (PKCβII (h)): 8 ± 3% | inhibition at 1 µM (CDK5/p25 (h)): 47 ± 2% | inhibition at 1 µM (CDK3/cyclin E (h)): 6 ± 2% | inhibition at 1 µM (PKCγ (h)): 12 ± 2% | inhibition at 1 µM (Lyn (h)): 98 ± 1% | inhibition at 1 µM (CDK1/cyclin B (h)): 18 ± 8% | inhibition at 1 µM (PDGFRβ; 1 μM, mean ± S.D., read-out: % inhibition at 1 μM, PDGFRβ (h)): 95 ± 1% | IC50 (PDGFRβ; in vitro kinase assay): 70 nM | Cytotoxicity in HUVECs (HUVECs [1]; 1 μg/mL): No cytotoxicity was observed | Cytotoxicity in HUVECs (HUVECs [1]; 5 and 10 μg/mL): significant endothelial cytotoxicity | inhibition at 1 µM (EGFR; 1 μM, mean ± S.D., read-out: % inhibition at 1 μM, EGFR(h)): 96 ± 2% | IC50 (EGFR; in vitro kinase assay, mean values): 43 nM | inhibition at 1 µM (PKCβI (h)): 7 ± 5% | inhibition at 1 µM (CaMKIV (h)): 0% | inhibition at 1 µM (SAPK2a (h)): 82 ± 2% | inhibition at 1 µM (PDGFRα; 1 μM, mean ± S.D., read-out: % inhibition at 1 μM, PDGFRα (h)): 93% | IC50 (PDGFRα; in vitro kinase assay): 162 nM | inhibition at 1 µM (PKG1α (h)): 0% | inhibition at 1 µM (PKCα (h)): 10 ± 1% | inhibition at 1 µM (CaMKIIδ (h)): 41 ± 3% | inhibition at 1 µM (PKCε (h)): 2 ± 3% | inhibition at 1 µM (PKCδ (h)): 0% | inhibition at 1 µM (MAPK1 (h)): 4 ± 5% | inhibition at 1 µM (Abl (h)): 100 ± 2% | Effect on VEGF-induced increase in tube formation (HUVECs [2]): significantly inhibited
